Laboratory results taken from PMC10782225 (The FASEB Journal, 2023).

What was measured:
human α7β2‐nAChR = target: T1, human α7β2‐nAChR (Homo sapiens, UniProt P17787+P36544); assay: cell-based; conditions: SEM
T1 construct: expressed in transfected cells; host or cells: Xenopus laevis oocytes, cRNA injection

human α7‐only‐nAChR = target: T2, human α7‐only‐nAChR (Homo sapiens, UniProt P36544); assay: cell-based; conditions: SEM
T2 construct: expressed in transfected cells; host or cells: Xenopus laevis oocytes, cRNA injection
T2 sequence (P36544 23-502 limits assumed): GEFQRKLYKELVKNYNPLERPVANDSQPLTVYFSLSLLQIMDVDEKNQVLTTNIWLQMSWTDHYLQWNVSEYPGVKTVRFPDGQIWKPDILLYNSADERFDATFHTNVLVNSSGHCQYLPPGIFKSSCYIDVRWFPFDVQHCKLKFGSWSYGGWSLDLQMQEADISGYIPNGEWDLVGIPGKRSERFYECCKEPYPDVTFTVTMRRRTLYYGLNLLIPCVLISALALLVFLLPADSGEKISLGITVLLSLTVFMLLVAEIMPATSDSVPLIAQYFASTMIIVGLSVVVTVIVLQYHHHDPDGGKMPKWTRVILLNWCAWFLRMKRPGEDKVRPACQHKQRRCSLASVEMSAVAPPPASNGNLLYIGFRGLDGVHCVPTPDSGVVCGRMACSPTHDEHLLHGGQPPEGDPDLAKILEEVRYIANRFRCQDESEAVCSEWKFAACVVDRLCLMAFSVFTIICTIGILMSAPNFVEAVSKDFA

T1 sequence (P36544 23-502 limits assumed): as above
T1 sequence (P17787 26-502 limits assumed): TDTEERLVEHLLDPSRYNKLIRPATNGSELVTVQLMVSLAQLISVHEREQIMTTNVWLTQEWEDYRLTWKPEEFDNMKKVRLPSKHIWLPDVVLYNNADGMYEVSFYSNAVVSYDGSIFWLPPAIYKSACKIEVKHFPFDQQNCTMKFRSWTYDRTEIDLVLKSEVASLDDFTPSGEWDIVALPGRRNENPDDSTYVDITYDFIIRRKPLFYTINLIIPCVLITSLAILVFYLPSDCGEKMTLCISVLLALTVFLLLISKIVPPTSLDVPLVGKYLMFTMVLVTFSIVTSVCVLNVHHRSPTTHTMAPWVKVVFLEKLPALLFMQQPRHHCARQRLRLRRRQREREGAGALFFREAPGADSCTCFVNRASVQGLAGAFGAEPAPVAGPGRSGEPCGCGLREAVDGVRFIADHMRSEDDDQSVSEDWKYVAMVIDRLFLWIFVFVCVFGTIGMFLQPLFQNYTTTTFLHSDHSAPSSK

CC(C)C[C@@H]1NC(=O)[C@H](Cc2ccccc2)NC(=O)[C@@H]2CSSC[C@H](NC(=O)CN)C(=O)N[C@@H](CSSC[C@@H](C(N)=O)NC(=O)[C@H](Cc3ccc(O)cc3)NC(=O)[C@H](CC(=O)O)NC(=O)[C@@H]3CCCN3C(=O)[C@H](CC(N)=O)NC(=O)[C@H](CC(N)=O)NC1=O)C(=O)N[C@@H](CO)C(=O)N[C@@H](Cc1c[nH]cn1)C(=O)N1CCC[C@H]1C(=O)N1CCC[C@H]1C(=O)N2 [α‐CtxPnIC, α‐conotoxin PnIC]
Kd (human α7β2‐nAChR; K d α7β2): 3.3 ± 0.6 nM
koff (human α7β2‐nAChR; read-out: k off α7β2): 0.000119 s⁻¹
kon (human α7β2‐nAChR; read-out: k on α7β2): 37200 M⁻¹ s⁻¹
Kd (human α7‐only‐nAChR): 1.9 ± 0.4 nM
koff (human α7‐only‐nAChR; read-out: k off α7‐only): 0.000122 s⁻¹
kon (human α7‐only‐nAChR; read-out: k on α7‐only): 68700 M⁻¹ s⁻¹
